Like-named read-outs stand apart in the source and are kept apart here.
Columns and labels:
[1] = system: neutral proteases (metalloproteases); test: Inhibition of neutral proteases (metalloproteases) in supernatant of IL-1β-stimulated rabbit joint chondrocytes, azocoll substrate; type: biochemical; conditions: IL-1β 1 ng/ml, 48 hours, APMA-activated supernatant, read-out: MP (metalloproteases) IC50
Method: (§1) a) The activity in inhibiting the formation of NO, measured as NO2^− (nitrites), PGE2, and neutral protease, was investigated in vitro on culture broths of rabbit joint chondrocytes stimulated by cytokine IL-1β (1 ng/ml) for 48 hours. For the preparation of the chondrocytes, the method described by Berenbaum et al [FEBS Letters 340, 51-55 (1994)] was followed. Briefly, fragments of cartilage removed under sterile conditions from the heads of rabbit shoulder, hip and knee joints were chopped finely and digested at 37° C. by hyaluronidase, trypsin and collagenase solutions, giving rise, after filtration on sterile gauze and centrifuging at 600×g and suitable dilution with 10% DMEM-FCS, to a concentration of approximately 1×10^5 cells per well. The cells were kept in these conditions until confluence (about 15 days), the broth being changed every 3 days. At this point, the products under test, dissolved in the medium, were added to each test sample and, after 20 minutes, 350 μl IL-1β was added in order to have a final concentration of 1 ng/ml. The duration of the stimulation was 48 hours at 37° C. (incubation air-CO2 7%). Measurement of the nitrites, as described by Green et al. [Anal. Biochem. 126, 131-138 (1982)], and of the PGE2s by RIA measurement, was then performed on the cell supernatant fluid. The measurement of the neutral proteases was performed in the cell supernatant fluid containing the p-aminophenyl mercury acetate (APMA) activator with the use of azocoll as the substrate and with incubation at 37° C. for 17 h as described by Chavira et al. [Anal. Biochem. 136, 446-450 (1984)]. In order to evaluate the direct inhibitory effect of the compounds under test on the hydrolytic activity of the cell supernatant fluid, they were added to the supernatant fluid containing the proteases induced by IL-1β and already activated by AMPA.
(§2) The results obtained are shown in Table 3, in which the IC50, that is, the concentration (micromolar) of antagonist which can inhibit the formation of nitrites, PGE2s, and neutral proteases, respectively, by 50% relative to the control group, that is, to the cells stimulated with IL-1β but without the addition of antagonists, is given for some of the compounds of the invention already given by way of example in Table 2.

formation of PGE2 = test: Inhibition of PGE2 formation in rabbit joint chondrocytes stimulated by IL-1β (RIA); type: cell-based; conditions: Oryctolagus cuniculus, Chondrocyte, IL-1β 1 ng/ml, 48 hours
Method: as §1, §2

[2] = system: formation of NO, measured as NO2− (nitrites); test: Inhibition of NO (nitrite) formation in rabbit joint chondrocytes stimulated by IL-1β; type: cell-based; conditions: Oryctolagus cuniculus, Chondrocyte, IL-1β 1 ng/ml, 48 hours, NO determined as nitrites
Method: as §1, §2

plasma TNFα = test: Plasma TNFα concentration in rats after stimulation with LPS (endotoxic shock); type: in vivo, rat; conditions: for TNFα (ng/ml ± SD): plasma 90 minutes after challenge
Method: c) The immunosuppressive activity of Compound I-4 was evaluated in an in vivo test in the rat, in which a lipopolysaccharide (LPS) of bacterial origin, injected i.p. at a dose of 6 mg/kg, induced a shock characterised by urgent diarrhoea accompanied by a large increase in the plasma TNFα concentration.
Blood was taken from the animals which were killed 90 minutes after the challenge and the concentration of TNFα in the plasma was determined by Elisa (Amersham Kit cod. RPN2734).

[3] = system: extravasation in the ears of mice; test: Extravasation (Evans Blu) induced by phlogogenic agents in the ears of mice; type: in vivo; conditions: for % inhibition of extravasation, PAF: 1 h; for % inhibition of extravasation, Zymosan: 2 h; for % inhibition of extravasation, Arachidonic Acid / % inhibition of extravasation, Bradykinin / % inhibition of extravasation, Histamine: 30 min; for ED50: OS, mouse ear
Method: b) Some of the compounds of the invention, such as compounds I-4, I-11 and I-31, were evaluated in vivo in a series of experimental extravasation models in which 5 μl of the preselected phlogogenic agent dissolved in physiological solution was injected intradermally into the ears of mice as described by Erdo et al., with slight modifications [Agents and Actions 39, 137-142 (1993)].
The products under test were administered orally 1 hour before the challenge and, 30 minutes before the challenge, the dye Evans Blu was injected intravenously in a dose of 100 mg/kg. The animals were killed at a time predetermined according to the test, 30 min.—2 hours after the challenge. The extravasation was evaluated by determining the quantity of dye present in the ear, extracted after homogenisation of the tissue in 2 ml of formamide and incubation at 50° C. for 2 hours. After centrifuging, the amount of dye was determined by measuring the absorption at 620 nm. The maximum % effect (% MPE) was calculated by the following formula:
[formula] in which EV is the mean absorption observed in the group of animals treated solely with the phlogogenic agent, ED is the group treated with the phlogogenic agent and the drug, and EB is the base value, that is, the value for the animals injected with physiological solution alone.
The phlogogenic agents used were:
Arachidonic acid (dissolved in EtOH); (1 mg/mouse; killed+30 min); histamine (3 nmoli/mouse; killed+30 min); PAF (30 pmoli/mouse; killed+60 min); Zymosan (10 μg/mouse; killed+120 min); bradykinin (0.6 nmoli/mouse; killed+30 min).

[4] = 50 μg/kg ICV + LPS 6 mg/kg I.P.

- IC50 [1]: 6.6 µM
- melting point: 190.7 to 191.4 °C
- IC50 (formation of PGE2): 3.3 µM
- IC50 [2]: 6.6 µM
SMILES: CCCCCNC(=S)Nc1ccc(NC(C)=N)cc1 [Compound I-4, N-[4-(N-acetamidine)phenyl]-N′-pentyl Thiourea]
- Inhibition (%) of plasma TNFα (plasma TNFα; [4]): 96.2%
- TNFα (ng/ml ± SD) (plasma TNFα; [4]): 2.3 ± 1.2 ng/mL
- TNFα (ng/ml ± SD) (plasma TNFα; 10 mg/kg IV + LPS 6 mg/kg I.P.): 12.9 ± 7.2 ng/mL
- TNFα (ng/ml ± SD) (plasma TNFα; 20 mg/kg OS + LPS 6 mg/kg I.P.): 30.6 ± 1.0 ng/mL
- inhibition at 10 mg/kg (plasma TNFα; Rattus norvegicus, 10 mg/kg IV + LPS 6 mg/kg I.P.): 78.9%
- % inhibition of extravasation, PAF ([3]; 2.5 mg/kg OS, PAF): 41.9%
- % inhibition of extravasation, Zymosan ([3]; 2.5 mg/kg OS, Zymosan): 40.0%
- % inhibition of extravasation, Arachidonic Acid ([3]; 5 mg/kg OS): 37.8%
- % inhibition of extravasation, Bradykinin ([3]; 5 mg/kg OS): 30.1%
- % inhibition of extravasation, Histamine ([3]; 5 mg/kg OS): 17.8%
- % inhibition of extravasation, PAF ([3]; 5 mg/kg OS, PAF): 49.9%
- % inhibition of extravasation, Zymosan ([3]; 5 mg/kg OS, Zymosan): 66.6%
- % inhibition of extravasation, Arachidonic Acid ([3]; 10 mg/kg OS): 40.0%
- % inhibition of extravasation, Bradykinin ([3]; 10 mg/kg OS): 30.7%
- % inhibition of extravasation, Histamine ([3]; 10 mg/kg OS): 27.7%
- % inhibition of extravasation, PAF ([3]; 10 mg/kg OS, PAF): 55.1%
- % inhibition of extravasation, Zymosan ([3]; 10 mg/kg OS, Zymosan): 65.8%
- % inhibition of extravasation, Arachidonic Acid ([3]; 20 mg/kg OS): 52.6%
- % inhibition of extravasation, Bradykinin ([3]; 20 mg/kg OS): 49.1%
- % inhibition of extravasation, Histamine ([3]; 20 mg/kg OS): 38.8%
- % inhibition of extravasation, PAF ([3]; 20 mg/kg OS, PAF): 56.4%
- % inhibition of extravasation, Zymosan ([3]; 20 mg/kg OS, Zymosan): 83.9%
- % inhibition of extravasation, Arachidonic Acid ([3]; 40 mg/kg OS): 55.5%
- % inhibition of extravasation, Bradykinin ([3]; 40 mg/kg OS): 51.3%
- % inhibition of extravasation, Histamine ([3]; 40 mg/kg OS): 52.5%
- % inhibition of extravasation, PAF ([3]; 40 mg/kg OS, PAF): 66.2%
- % inhibition of extravasation, Zymosan ([3]; 40 mg/kg OS, Zymosan): 89.8%
- % inhibition of extravasation, Zymosan ([3]; 80 mg/kg OS, Zymosan): 95.5%
- inhibition at 5 mg/kg ([3]; Mus musculus, 5 mg/kg, models other than Zymosan, read-out: mean inhibitory effect in the other extravasation models): ~35%
- ED50 ([3]; PAF, read-out: ED50, extravasation induced by PAF): 6.1 mg/kg
- ED50 ([3]; Zymosan, read-out: ED50, extravasation induced by Zymosan): 3.1 mg/kg
- ED50 ([3]; arachidonic acid, read-out: ED50, extravasation induced by AA (arachidonic acid)): 20.5 mg/kg
- ED50 ([3]; bradykinin, read-out: ED50, extravasation induced by Bradykinin): 32.6 mg/kg
- ED50 ([3]; histamine, read-out: ED50, extravasation induced by Histamine): 37 mg/kg

From patent publication US7560591B2, “Benzamidine derivatives having anti-inflammatory and immunosuppressive activity” (Rotta Research Laboratorium S.p.A., priority 2001, dated 2009)
